In US11672811B2, “Materials and methods for suppressing and/or treating bone related diseases and symptoms” (Indiana University Research and Technology Corporation, priority 2017, dated 2023):
Each block holds one molecule with its values, some of them ahead of it. Square brackets hold non-standard residues; d marks the D form. Peptide text beside a SMILES is read from it. * marks the point of attachment. ξ: configuration not given here. Cbz = O=C(OCc1ccccc1)*; ξL = CC(C)CC(N)C(=O)O

Tests used:
[1] = system: Notch target gene expression (Hes1); test: Notch target gene expression in 5TGM1 myeloma cells in vitro; assay type: cell-based; settings: for inhibition of Notch target gene expression: compounds pre-incubated at low pH to mimic acidic conditions in resorption sites, myeloma cells; for Notch target gene expression (Hes1-Hey1): in vitro, 5TGM1 myeloma cells, not pre-incubated
Excerpt: FIG. 1A. Graphs illustrating the effect on Notch target gene expression. In vitro, the control unconjugated GSI decreased Notch target gene expression (Hes1-Hey1) but BT-GSI-XII had no effect.
FIG. 1B. A graph illustrating the effect on Notch target gene expression.
(§1) Referring now to FIG. 1A, the control unconjugated GSI decreased Notch target gene expression (Hes1) in 5TGM1 myeloma cells, but BT-GSI-XII had no effect in vitro. […] (FIG. 1E).

Hes1/5 expression = test: Ex vivo whole bone organ cultures, Hes1/5 expression; assay type: cell-based; settings: compounds non-pre-incubated
Excerpt: FIG. 1C. A schematic drawing illustrating an exemplary ex vivo system.
as §1

[2] = system: normal 4-month old female mice; test: In vivo administration of BT-GSI-XII to normal mice: tolerability, skin, gut toxicity biomarker
[3] = system: normal 4-month old female mice; test: In vivo administration of BT-GSI-XII to normal mice: BMD, microCT, serum bone markers, osteoclasts/osteoblasts, bone cytokine and osteoblast marker mRNA
Excerpt: Daily injections of PTH (iPTH) are thought to cause bone anabolism by increasing osteoblast number and function. However, iPTH can also increase bone resorption, which can limit bone gain. iPTH activates Notch signaling in osteocytes; and bone-targeted Notch inhibition using a γ-secretase inhibitor (GSI) conjugated to an alendronate-modified bone-targeting molecule (BT-GSI) decreases Notch signaling in bone, and reduces CTX (−40%) while preserving bone formation, leading to increases in BMD (4-7%) and cancellous bone volume (BV/TV; 30%).

Notch target genes = test: Notch target gene mRNA in bone, brain and gut of BT-GSI treated mice; assay type: in vivo; settings: compared to vehicle-treated mice
Excerpt: FIG. 2A. Graphs illustrating the effect on Notch target genes.
FIG. 2B. Graphs illustrating the effect on Notch target genes.
as §1

4-mo-old mice = test: Co-administration of BT-GSI with daily PTH injections (iPTH) in mice: bone mass, resorption and formation; assay type: in vivo
Description: (§2) To investigate whether a combination of iPTH (anabolic) and BT-GSI (anti-catabolic) increases bone mass to a higher extent than either agent alone, BT-GSI (5 mg/kg, 3×/wk) or saline was co-administered with iPTH (100 ng/g/day) or vehicle for 2 wks to 4-mo-old mice (n=10/group).
(§3) No changes were found in M-Csf expression. Additionally, unconjugated GSI reduced Rankl-induced osteoclast differentiation in vitro with an EC50˜0.1 μM (FIG. 12D). Further, the bone-targeting molecule alone required a dose 10 times higher than GSI to decreased osteoclastogenesis. Referring now to FIG. 13, co-administration of BT-GSI decreased iPTH-induced elevated serum P1NP (e.g., about 30% decrease); however, the co-administration of BT-GSI maintained the iPTH-induced elevated bone formation rate (20%) and osteoblast number/surface (20%) in cancellous bone (FIG. 13B-C). Further, mice receiving iPTH alone or combined with BT-GSI induced elevated mRNA levels of Alp1, Runx2, Bglap, and Wnt target genes, and reduced mRNA level of Sost in bone (FIG. 13 D-E).

[4] = system: Notch target genes Hes1/5/7 and Hey1/L; test: Co-administration of BT-GSI with iPTH in mice: Notch target gene expression in bone, brain, gut; assay type: in vivo; settings: 2 wks
Description: as §2

[5] = system: Rankl-induced osteoclast differentiation; test: Rankl-induced osteoclast differentiation in vitro; assay type: cell-based; settings: read-out: EC50, reduction of Rankl-induced osteoclast differentiation
Description: as §3

[6] = 5 μg/g, 3×wk, 2 weeks, normal 4-month old female mice
[7] = serum, 5 μg/g, 3×wk, 2 weeks, mice
[8] = BT-GSI 5 mg/kg 3×/wk co-administered with iPTH, 2 wks
[9] = BT-GSI co-administered with iPTH
[10] = BT-GSI co-administered with iPTH, cancellous bone
[11] = single agent (iPTH 100 ng/g/day or BT-GSI 5 mg/kg 3×/wk)

Molecule: CC[C@H](C)[C@H](NC(=O)OCc1ccccc1)C(=O)NC(/C=N/N(C)CCCC(=O)NC(P(=O)(O)O)P(=O)(O)O)CC(C)C (stereo partly drawn) [BT-GSI-XII]
inhibition of Notch target gene expression [1]: equal inhibition
Notch target gene expression (Hes1-Hey1) [1]: no effect
Hes1/5 expression (Hes1/5 expression): similarly decreased
skin issues [2, 6]: no skin issues were observed
tolerability [2, 6]: well tolerated
Apsidin expression in the gut, a biomarker of gastrointestinal toxicity ([2]; treated mice vs vehicle, gut): did not increase
higher femoral BMD compared to control mice ([3]; 5 μg/g, 3×wk, 2 weeks, mice): 4%
higher spinal BMD compared to control mice ([3]; 5 μg/g, 3×wk, 2 weeks, mice): 7%
higher total BMD compared to control mice ([3]; 5 μg/g, 3×wk, 2 weeks, mice): 3%
increased cancellous bone volume (BV/TV) compared to vehicle-treated mice ([3]; microCT analysis): 25%
increased trabecular thickness compared to vehicle-treated mice ([3]; microCT analysis): 10%
increased cancellous bone volume (BV/TV) compared to vehicle-treated mice ([3]; microCT analysis, listed as BT-GSI): 30%
circulating levels of the bone formation marker P1NP [3, 7]: did not affect
decrease of serum CTX, a marker of bone resorption [3, 7]: 40%
increases in BMD ([3]; summary statement, sites not named): 4-7%
bone formation and mineral apposition rates ([3]; treated mice): remained unchanged
decrease in the bone surface covered by osteoclasts compared to control mice ([3]; treated mice): 50%
number of osteoblasts ([3]; treated mice): remained unchanged
Opg mRNA expression in bone ([3]; treated mice vs vehicle): increased
Rankl/Opg ratio in bone ([3]; treated mice vs vehicle): decreasing
Opg mRNA expression in bone ([3]; treated mice vs vehicle, listed as BT-GSI): upregulated
expression of osteoblast markers, including Wnt target genes and the osteocyte-derived Sost/Sclerostin ([3]; treated mice, bone): remained unchanged
bone formation and mineral apposition rates ([3]; treated mice, listed as BT-GSI): preserving
Notch target gene mRNA expression in brain or gut (Notch target genes; brain, gut): not in brain or gut
Notch target gene (Hey2, Hes5, Hes7, HeyL) mRNA expression in bone (Notch target genes; whole bone preparations): decreases
increase in femoral BMD (4-mo-old mice; [8]): 17%
increase in spinal BMD (4-mo-old mice; [8]): 7%
increase in total BMD (4-mo-old mice; [8]): 10%
additional increase in cancellous BV/TV (L4 and distal femur) compared to the iPTH-induced increase (4-mo-old mice; [9]): 25%
additional increase in trabecular thickness compared to the iPTH-induced increase (4-mo-old mice; [9]): 25%
decrease of iPTH-induced elevated serum P1NP (4-mo-old mice; [9]): about 30%
effect on iPTH-induced increase in cortical bone area (4-mo-old mice; [9]): did not alter
iPTH-induced elevated Rankl/Opg expression ratio in bone (4-mo-old mice; [9]): remained unchanged
serum CTX level (4-mo-old mice; [9]): less than those exhibited in control mice
iPTH-induced elevated bone formation rate (4-mo-old mice; [10]): maintained
iPTH-induced elevated osteoblast number/surface (4-mo-old mice; [10]): maintained
osteoclast number/surface level (4-mo-old mice; [10]): less than those exhibited in control mice
mRNA level of Sost in bone (4-mo-old mice; iPTH combined with BT-GSI): reduced
mRNA levels of Alp1, Runx2, Bglap, and Wnt target genes in bone (4-mo-old mice; iPTH combined with BT-GSI): elevated
iPTH-induced elevated expression of Hes1/5/7 and Hey1/L in bone ([4]; BT-GSI 5 mg/kg 3×/wk co-administered with iPTH 100 ng/g/day): decreased the iPTH-induced elevated expression of Hes1/5/7 and Hey1/L to a level comparable to the control mice
expression of Notch target genes in brain or gut [4, 11]: remained unchanged
expression of Notch target genes in brain or gut ([4]; the combination of iPTH and BT-GSI): remained unchanged

EC50 [5]: ~100 nM
Molecule: CC[C@H](C)[C@H](NC(=O)OCc1ccccc1)C(=O)N[C@H](C=O)CC(C)C [GSI-XII, reference compound] (Cbz-Ile-Leu-aldehyde)
Notch target gene expression (Hes1-Hey1) [1]: decreased

Molecule: CC[C@H](C)[C@H](NC(=O)OCc1ccccc1)C(=O)NC(C=O)CC(C)C (stereo partly drawn) [GSI-XII, reference compound] (Cbz-Ile-[ξL]-aldehyde)
inhibition of Notch target gene expression [1]: equal inhibition
Hes1/5 expression (Hes1/5 expression): similarly decreased

B1: iPTH: daily injections of PTH (parathyroid hormone) (protein, UniProt P01270 32-115, looked up)
Parathyroid hormone: SVSEIQLMHNLGKHLNSMERVEWLRKKLQDVHNFVALGAPLAPRDAGSQRPRKKEDNVLVESHEKSLGEADKADVNVLTKAKSQ
modifications: Parathyroid hormone
increase in femoral BMD (4-mo-old mice; iPTH 100 ng/g/day alone, 2 wks): 13%
increase in total BMD (4-mo-old mice; iPTH 100 ng/g/day alone, 2 wks): 7%
spinal BMD change (4-mo-old mice; iPTH 100 ng/g/day alone, 2 wks): 0%
iPTH-induced elevated Rankl/Opg expression ratio in bone (4-mo-old mice; iPTH alone): 1.5 fold
iPTH-induced elevated serum CTX (4-mo-old mice; iPTH alone): 30%
iPTH-induced increase in cortical bone area (4-mo-old mice; iPTH alone): 8%
mRNA level of Sost in bone (4-mo-old mice; iPTH alone): reduced
mRNA levels of Alp1, Runx2, Bglap, and Wnt target genes in bone (4-mo-old mice; iPTH alone): elevated
serum P1NP (4-mo-old mice; iPTH alone): elevated
iPTH-induced elevated bone formation rate (4-mo-old mice; iPTH alone, cancellous bone): 20%
iPTH-induced elevated osteoblast number/surface (4-mo-old mice; iPTH alone, cancellous bone): 20%
iPTH-induced elevated osteoclast number/surface (4-mo-old mice; iPTH alone, cancellous bone): 25%
expression of the Notch target genes Hes1/5/7 and Hey1/L in bone ([4]; iPTH 100 ng/g/day alone): increased
expression of Notch target genes in brain or gut [4, 11]: remained unchanged
